This passage reports Activity, GI50 and IC50 results from ChEMBL document CHEMBL3286226, “Discovery of thienopyrimidine-based FLT3 inhibitors from the structural modification of known IKKβ inhibitors” (Bioorg Med Chem Lett, 2014).

The structures appear in SMILES notation. Bounds are passed on as bounds.

For experiment [1], the target named is Receptor-type tyrosine-protein kinase FLT3 (Homo sapiens) (UniProt P36888). Briefly: Inhibition of human FLT3 kinase assessed as residual activity at 10 uM relative to control.
Experiment [2] in a line: Growth inhibition of human THP1 cells by XTT assay. It counts as functional. The following applies: THP-1. A general note: Tetrazolium assays rely on reduction of a dye to a coloured formazan, in cell work by metabolically active cells.
In experiment [3] the test system is HL-60. In words: Growth inhibition of human HL60 cells by XTT assay. Type of experiment: functional.
Experiment [4] concerns the target T1, Inhibitor of nuclear factor kappa-B kinase subunit beta (Homo sapiens, UniProt O14920).
T1 sequence (O14920 whole entry): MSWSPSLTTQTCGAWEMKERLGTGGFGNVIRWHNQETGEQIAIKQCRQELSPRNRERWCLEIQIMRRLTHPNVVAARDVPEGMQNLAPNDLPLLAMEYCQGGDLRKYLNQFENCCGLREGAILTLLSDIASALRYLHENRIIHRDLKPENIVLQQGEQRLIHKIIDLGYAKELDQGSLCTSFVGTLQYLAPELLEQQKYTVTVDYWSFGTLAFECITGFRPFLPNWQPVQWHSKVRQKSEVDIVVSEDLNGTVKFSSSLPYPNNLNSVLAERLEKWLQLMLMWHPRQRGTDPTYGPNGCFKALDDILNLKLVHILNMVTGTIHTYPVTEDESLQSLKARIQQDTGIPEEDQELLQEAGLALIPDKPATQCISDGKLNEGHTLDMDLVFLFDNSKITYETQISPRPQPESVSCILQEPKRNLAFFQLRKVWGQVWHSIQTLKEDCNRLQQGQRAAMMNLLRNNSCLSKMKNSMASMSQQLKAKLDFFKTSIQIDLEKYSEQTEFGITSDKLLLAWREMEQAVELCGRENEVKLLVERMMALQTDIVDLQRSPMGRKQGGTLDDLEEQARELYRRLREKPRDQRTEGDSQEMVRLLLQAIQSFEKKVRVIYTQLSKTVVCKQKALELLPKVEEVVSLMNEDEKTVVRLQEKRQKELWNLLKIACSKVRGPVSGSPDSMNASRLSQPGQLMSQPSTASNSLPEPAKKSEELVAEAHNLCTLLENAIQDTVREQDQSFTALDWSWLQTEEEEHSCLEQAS
Description: Inhibition of IKKbeta kinase (unknown origin) by Lance ULight system

Experiment [5] has as its target T1, Inhibitor of nuclear factor kappa-B kinase subunit beta. This is another data set of the same source.
Description: (§1) Inhibition of IKKbeta kinase (unknown origin) by Radioisotope system
Experiment [6] relates to K562. Briefly: Growth inhibition of human K562 cells by XTT assay. Details: scale not given: the % may be the effect or the level left; call rule not given here. Type of experiment: functional.
Experiment [7] addresses T2, Receptor-type tyrosine-protein kinase FLT3 (Homo sapiens, UniProt P36888).
T2 sequence (P36888 whole entry): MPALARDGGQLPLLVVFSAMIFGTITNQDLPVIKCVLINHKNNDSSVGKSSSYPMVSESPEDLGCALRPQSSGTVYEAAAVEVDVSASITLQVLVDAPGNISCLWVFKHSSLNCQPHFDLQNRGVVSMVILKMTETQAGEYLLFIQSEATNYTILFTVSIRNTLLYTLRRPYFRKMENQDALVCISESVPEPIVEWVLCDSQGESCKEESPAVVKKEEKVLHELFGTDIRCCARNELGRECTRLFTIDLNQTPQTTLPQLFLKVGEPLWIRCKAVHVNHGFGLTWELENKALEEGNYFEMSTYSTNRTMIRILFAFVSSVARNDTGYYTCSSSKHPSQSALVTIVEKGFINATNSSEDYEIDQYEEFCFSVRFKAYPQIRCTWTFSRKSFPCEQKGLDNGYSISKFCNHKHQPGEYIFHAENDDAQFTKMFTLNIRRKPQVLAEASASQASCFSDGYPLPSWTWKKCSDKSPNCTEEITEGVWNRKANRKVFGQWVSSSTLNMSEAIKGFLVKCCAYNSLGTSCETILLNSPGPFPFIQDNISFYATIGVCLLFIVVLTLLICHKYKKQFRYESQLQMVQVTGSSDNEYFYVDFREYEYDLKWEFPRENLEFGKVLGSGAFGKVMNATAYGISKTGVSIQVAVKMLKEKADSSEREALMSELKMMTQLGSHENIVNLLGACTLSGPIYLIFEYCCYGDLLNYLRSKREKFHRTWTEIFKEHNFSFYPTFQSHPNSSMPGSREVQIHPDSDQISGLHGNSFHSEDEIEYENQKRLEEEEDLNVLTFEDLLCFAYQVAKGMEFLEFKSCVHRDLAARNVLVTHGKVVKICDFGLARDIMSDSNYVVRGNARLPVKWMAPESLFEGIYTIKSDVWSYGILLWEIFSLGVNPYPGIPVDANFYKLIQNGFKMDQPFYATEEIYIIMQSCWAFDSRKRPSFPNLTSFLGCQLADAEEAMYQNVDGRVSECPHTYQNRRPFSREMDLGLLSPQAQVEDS
Description: Inhibition of FLT3 kinase (unknown origin)

Experiment [8] has as its system RAW264.7. In words: cells. The settings on record: Mus musculus.
Description: Antiinflammatory activity against mouse RAW264.7 cells assessed as reduction of LPS-induced NO production
Experiment [9] relates to Receptor-type tyrosine-protein kinase FLT3 (Homo sapiens), P36888 [D835Y]. In words: Inhibition of human FLT3 kinase D835Y mutant assessed as residual activity at 10 uM relative to control.
In experiment [10] the test system is RAW264.7. In words: cells. The settings on record: Mus musculus. The source holds these as a separate data set.
Description: Antiinflammatory activity against mouse RAW264.7 cells assessed as reduction of LPS-induced TNF-alpha production
Experiment [11] deals with MV4-11. Briefly: Growth inhibition of human MV4-11 cells by XTT assay. It counts as functional.
The target in experiment [12] is Dual specificity mitogen-activated protein kinase kinase 4 (Mus musculus) (UniProt P47809). Briefly: Inhibition of mouse MKK4 assessed as residual activity at 10 uM relative to control.
The target of experiment [13] is Inhibitor of nuclear factor kappa-B kinase subunit beta (Homo sapiens) (UniProt O14920). In words: Inhibition of human IKKbeta assessed as residual activity at 1 uM relative to control.
Experiment [14] has as its target Mitogen-activated protein kinase 12 (Homo sapiens) (UniProt P53778). In words: Inhibition of human SAPK3 assessed as residual activity at 10 uM relative to control.
For experiment [15], the target named is Dual specificity mitogen-activated protein kinase kinase 6 (Homo sapiens) (UniProt P52564). In words: Inhibition of human MKK6 assessed as residual activity at 10 uM relative to control.
Experiment [16] addresses Tyrosine-protein kinase JAK1 (Homo sapiens) (UniProt P23458). Briefly: Inhibition of human JAK1 assessed as residual activity at 10 uM relative to control.
For experiment [17], the target named is Non-receptor tyrosine-protein kinase TYK2 (Homo sapiens) (UniProt P29597). In words: Inhibition of human TYK2 assessed as residual activity at 10 uM relative to control.
For experiment [18], the target named is Mitogen-activated protein kinase 11 (Homo sapiens) (UniProt Q15759). Briefly: Inhibition of human SAPK2beta assessed as residual activity at 10 uM relative to control.
Experiment [19] has as its target Dual specificity mitogen-activated protein kinase kinase 7 (Homo sapiens) (UniProt O14733). In words: Inhibition of human MKK7beta assessed as residual activity at 10 uM relative to control.
The target in experiment [20] is Tyrosine-protein kinase BTK (Homo sapiens) (UniProt Q06187). Briefly: Inhibition of human BTK assessed as residual activity at 10 uM relative to control.
Experiment [21] deals with MAP kinase-activated protein kinase 2 (Homo sapiens) (UniProt P49137). In words: Inhibition of human MAPKAP-K2 assessed as residual activity at 10 uM relative to control.
Experiment [22] deals with Ribosomal protein S6 kinase alpha-5 (Homo sapiens) (UniProt O75582). Briefly: Inhibition of human MSK1 assessed as residual activity at 10 uM relative to control.
The target of experiment [23] is Rho-associated protein kinase 2 (Homo sapiens) (UniProt O75116). Briefly: Inhibition of human ROCK-2 assessed as residual activity at 10 uM relative to control.
Experiment [24] addresses Tyrosine-protein kinase Lck (Homo sapiens) (UniProt P06239). Briefly: Inhibition of human Lck assessed as residual activity at 10 uM relative to control.
Experiment [25] addresses Tyrosine-protein kinase Lyn (Homo sapiens) (UniProt P07948). In words: Inhibition of human Lyn assessed as residual activity at 10 uM relative to control.
For experiment [26], the species on record is Homo sapiens. In words: Inhibition of human PKA assessed as residual activity at 10 uM relative to control.
For experiment [27], the target named is Receptor-type tyrosine-protein kinase FLT3 (Homo sapiens) (UniProt P36888). In words: Inhibition of human Flt3 assessed as residual activity at 10 uM relative to control.
Experiment [28] addresses Mitogen-activated protein kinase 8 (Homo sapiens) (UniProt P45983). Briefly: Inhibition of human JNK1alpha1 assessed as residual activity at 10 uM relative to control.
The target in experiment [29] is Mitogen-activated protein kinase 14 (Homo sapiens) (UniProt Q16539). Briefly: Inhibition of human SAPK2alpha assessed as residual activity at 10 uM relative to control.
Experiment [30] addresses Mitogen-activated protein kinase 13 (Homo sapiens) (UniProt O15264). In words: Inhibition of human SAPK4 assessed as residual activity at 10 uM relative to control.
The target of experiment [31] is Tyrosine-protein kinase JAK3 (Homo sapiens) (UniProt P52333). Briefly: Inhibition of human JAK3 assessed as residual activity at 10 uM relative to control.
For experiment [32], the target named is Mitogen-activated protein kinase 9 (Homo sapiens) (UniProt P45984). In words: Inhibition of human JNK2alpha2 assessed as residual activity at 10 uM relative to control.
Experiment [33] deals with Inhibitor of nuclear factor kappa-B kinase subunit alpha (Homo sapiens) (UniProt O15111). In words: Inhibition of human IKKalpha assessed as residual activity at 10 uM relative to control.
In experiment [34] the target is T1, Inhibitor of nuclear factor kappa-B kinase subunit beta. This is another data set of the same source.
Description: as §1

Sequence of Mitogen-activated protein kinase 11 (Homo sapiens) (Q15759 whole entry): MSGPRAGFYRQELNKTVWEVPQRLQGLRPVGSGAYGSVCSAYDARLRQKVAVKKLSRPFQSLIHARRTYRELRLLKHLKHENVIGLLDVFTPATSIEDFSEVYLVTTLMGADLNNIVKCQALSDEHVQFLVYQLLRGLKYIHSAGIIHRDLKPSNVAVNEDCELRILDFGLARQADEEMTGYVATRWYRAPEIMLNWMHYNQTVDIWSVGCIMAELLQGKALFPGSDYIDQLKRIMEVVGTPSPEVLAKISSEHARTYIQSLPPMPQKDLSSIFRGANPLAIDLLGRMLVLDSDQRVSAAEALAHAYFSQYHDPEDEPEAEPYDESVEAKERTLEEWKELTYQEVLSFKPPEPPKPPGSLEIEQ
Sequence of Dual specificity mitogen-activated protein kinase kinase 6 (Homo sapiens) (P52564 whole entry): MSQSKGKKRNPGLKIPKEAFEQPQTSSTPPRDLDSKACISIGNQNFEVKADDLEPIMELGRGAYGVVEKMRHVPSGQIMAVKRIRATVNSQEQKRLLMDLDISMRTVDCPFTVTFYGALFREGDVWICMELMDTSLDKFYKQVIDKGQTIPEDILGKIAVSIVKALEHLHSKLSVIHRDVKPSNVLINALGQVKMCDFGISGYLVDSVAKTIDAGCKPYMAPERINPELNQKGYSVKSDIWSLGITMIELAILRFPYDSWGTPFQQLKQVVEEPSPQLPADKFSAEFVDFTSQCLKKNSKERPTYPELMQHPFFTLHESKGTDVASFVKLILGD
Sequence of Tyrosine-protein kinase Lck (Homo sapiens) (P06239 2-509 limits assumed): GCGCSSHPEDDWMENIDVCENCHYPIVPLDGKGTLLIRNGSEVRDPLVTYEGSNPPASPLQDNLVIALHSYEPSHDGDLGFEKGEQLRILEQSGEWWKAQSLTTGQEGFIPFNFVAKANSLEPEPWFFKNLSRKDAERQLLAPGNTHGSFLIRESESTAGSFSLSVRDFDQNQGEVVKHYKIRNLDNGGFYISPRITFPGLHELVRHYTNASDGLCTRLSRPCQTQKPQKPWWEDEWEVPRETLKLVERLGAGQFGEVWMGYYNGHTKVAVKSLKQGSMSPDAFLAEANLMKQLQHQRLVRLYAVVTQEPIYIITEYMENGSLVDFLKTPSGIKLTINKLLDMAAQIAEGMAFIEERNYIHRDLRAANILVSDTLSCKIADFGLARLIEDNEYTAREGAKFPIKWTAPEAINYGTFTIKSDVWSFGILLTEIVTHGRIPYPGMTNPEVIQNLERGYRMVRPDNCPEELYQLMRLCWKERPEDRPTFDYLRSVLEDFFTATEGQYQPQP
Sequence of Mitogen-activated protein kinase 12 (Homo sapiens) (P53778 whole entry): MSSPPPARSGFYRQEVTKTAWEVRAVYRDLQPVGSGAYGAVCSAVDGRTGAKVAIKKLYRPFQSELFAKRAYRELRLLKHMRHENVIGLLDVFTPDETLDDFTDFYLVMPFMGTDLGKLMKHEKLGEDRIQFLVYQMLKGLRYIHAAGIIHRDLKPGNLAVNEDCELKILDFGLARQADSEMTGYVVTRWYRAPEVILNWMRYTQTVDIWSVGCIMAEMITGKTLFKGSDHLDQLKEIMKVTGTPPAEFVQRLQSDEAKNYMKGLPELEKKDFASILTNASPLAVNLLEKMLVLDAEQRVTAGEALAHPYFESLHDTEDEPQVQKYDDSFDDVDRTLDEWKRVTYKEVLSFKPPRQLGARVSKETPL
Sequence of Inhibitor of nuclear factor kappa-B kinase subunit alpha (Homo sapiens) (O15111 whole entry): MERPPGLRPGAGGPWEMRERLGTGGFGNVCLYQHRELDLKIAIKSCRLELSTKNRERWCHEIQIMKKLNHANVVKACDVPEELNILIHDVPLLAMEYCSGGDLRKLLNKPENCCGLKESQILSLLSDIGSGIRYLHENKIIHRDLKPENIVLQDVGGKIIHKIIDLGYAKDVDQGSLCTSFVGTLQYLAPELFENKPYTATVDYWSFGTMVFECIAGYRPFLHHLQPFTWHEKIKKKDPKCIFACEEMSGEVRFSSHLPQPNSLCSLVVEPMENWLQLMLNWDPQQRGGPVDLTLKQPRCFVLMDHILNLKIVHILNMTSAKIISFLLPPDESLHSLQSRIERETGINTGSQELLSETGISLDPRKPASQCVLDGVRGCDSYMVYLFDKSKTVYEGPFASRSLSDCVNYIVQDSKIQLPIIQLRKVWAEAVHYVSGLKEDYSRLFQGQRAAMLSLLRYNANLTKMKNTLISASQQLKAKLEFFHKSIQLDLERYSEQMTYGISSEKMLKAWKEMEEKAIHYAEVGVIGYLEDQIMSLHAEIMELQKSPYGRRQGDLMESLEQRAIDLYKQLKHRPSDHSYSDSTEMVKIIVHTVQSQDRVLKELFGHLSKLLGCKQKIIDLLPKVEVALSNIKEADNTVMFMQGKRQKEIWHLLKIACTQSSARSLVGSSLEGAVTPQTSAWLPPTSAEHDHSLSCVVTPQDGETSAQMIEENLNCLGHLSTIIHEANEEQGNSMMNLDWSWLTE
Sequence of Rho-associated protein kinase 2 (Homo sapiens) (O75116 whole entry, looked up): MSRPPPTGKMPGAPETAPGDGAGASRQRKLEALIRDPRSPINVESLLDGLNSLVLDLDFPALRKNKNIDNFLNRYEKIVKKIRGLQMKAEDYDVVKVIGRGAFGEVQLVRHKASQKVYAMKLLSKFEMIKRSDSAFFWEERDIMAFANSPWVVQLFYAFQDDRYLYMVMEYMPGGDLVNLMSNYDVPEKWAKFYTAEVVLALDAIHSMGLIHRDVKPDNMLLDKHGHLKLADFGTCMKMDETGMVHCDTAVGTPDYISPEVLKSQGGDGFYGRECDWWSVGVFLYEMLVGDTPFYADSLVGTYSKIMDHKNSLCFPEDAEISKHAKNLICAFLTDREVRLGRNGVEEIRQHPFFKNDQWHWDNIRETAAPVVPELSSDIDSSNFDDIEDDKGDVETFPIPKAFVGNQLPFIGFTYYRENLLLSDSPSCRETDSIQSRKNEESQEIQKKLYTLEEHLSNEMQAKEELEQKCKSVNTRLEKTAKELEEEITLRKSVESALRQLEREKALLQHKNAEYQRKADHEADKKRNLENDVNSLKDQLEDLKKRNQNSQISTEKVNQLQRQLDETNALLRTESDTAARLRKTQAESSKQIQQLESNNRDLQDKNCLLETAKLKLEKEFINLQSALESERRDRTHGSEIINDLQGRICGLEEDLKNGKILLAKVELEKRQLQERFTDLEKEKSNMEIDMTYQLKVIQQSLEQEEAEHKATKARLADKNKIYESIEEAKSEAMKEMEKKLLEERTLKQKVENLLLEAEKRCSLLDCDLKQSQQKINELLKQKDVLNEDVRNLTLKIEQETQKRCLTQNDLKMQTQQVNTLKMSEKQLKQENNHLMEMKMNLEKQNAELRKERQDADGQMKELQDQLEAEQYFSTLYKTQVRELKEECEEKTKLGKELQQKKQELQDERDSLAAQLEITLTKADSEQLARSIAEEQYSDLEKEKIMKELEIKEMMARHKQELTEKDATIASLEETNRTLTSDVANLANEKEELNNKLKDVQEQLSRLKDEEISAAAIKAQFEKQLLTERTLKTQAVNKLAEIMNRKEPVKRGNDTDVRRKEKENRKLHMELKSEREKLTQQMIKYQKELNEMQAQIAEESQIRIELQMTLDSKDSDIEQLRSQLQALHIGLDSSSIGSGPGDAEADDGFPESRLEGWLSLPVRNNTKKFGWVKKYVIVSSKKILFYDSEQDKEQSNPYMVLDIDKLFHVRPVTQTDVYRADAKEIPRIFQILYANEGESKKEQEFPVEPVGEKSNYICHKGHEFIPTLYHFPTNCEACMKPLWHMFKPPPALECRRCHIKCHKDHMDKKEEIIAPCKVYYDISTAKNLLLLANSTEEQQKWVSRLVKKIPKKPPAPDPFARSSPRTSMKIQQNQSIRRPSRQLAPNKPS
Sequence of Mitogen-activated protein kinase 13 (Homo sapiens) (O15264 whole entry): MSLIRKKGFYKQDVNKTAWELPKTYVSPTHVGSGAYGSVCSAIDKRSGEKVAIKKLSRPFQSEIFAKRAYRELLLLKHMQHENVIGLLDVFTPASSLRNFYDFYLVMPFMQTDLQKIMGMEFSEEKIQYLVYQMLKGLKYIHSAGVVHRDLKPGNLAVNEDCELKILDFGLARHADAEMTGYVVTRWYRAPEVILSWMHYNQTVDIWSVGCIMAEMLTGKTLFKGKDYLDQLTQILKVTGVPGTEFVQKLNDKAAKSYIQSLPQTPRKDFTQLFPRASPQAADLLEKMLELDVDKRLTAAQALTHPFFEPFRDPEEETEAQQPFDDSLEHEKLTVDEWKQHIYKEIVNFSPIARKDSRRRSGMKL
Sequence of MAP kinase-activated protein kinase 2 (Homo sapiens) (P49137 whole entry, looked up): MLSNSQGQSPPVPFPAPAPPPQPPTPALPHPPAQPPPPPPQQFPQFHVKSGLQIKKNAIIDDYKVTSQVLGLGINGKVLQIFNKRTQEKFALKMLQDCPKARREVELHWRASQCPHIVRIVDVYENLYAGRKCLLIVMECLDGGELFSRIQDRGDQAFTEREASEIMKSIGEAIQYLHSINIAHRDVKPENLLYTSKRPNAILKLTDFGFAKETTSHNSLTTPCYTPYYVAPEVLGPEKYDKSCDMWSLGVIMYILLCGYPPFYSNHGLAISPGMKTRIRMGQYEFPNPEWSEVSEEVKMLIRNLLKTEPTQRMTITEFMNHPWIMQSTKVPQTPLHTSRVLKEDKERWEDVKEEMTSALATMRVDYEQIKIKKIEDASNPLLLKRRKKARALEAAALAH
Sequence of Mitogen-activated protein kinase 14 (Homo sapiens) (Q16539 whole entry): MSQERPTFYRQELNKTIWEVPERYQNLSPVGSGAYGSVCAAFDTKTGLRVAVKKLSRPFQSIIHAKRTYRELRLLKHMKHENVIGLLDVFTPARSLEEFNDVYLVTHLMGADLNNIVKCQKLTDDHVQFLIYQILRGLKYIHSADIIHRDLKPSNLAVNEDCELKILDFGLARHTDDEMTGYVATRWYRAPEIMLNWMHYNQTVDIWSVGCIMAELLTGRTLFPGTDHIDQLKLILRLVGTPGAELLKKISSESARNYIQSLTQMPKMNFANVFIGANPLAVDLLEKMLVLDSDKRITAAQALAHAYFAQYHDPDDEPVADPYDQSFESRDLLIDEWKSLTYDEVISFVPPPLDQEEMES

Usually GI50 stands for the concentration that inhibits growth by half. One may read the IC50 as the point on the concentration scale where inhibition reaches its midpoint. As to `CC1=CC(=O)N(Nc2nc(-c3cccs3)nc3scc(C)c23)C1=O`, the Activity was found to be 5% in [1], 0.257% in [6] and 2% in experiment [9]. Moreover, the GI50 in experiment [2] was 111 nM; in [3] it was 264 nM; in [11], 3 nM. The IC50 was more than 50000 nM in experiment [4]; “Not Active” in experiment [5]; 65 nM in experiment [7]; 1920 nM in experiment [8]; 4220 nM in experiment [10].

Consider `CC1=CC(=O)N(Nc2nc(-c3cccs3)nc3scc(-c4ccccc4)c23)C1=O`, for which the Activity in [12] was found to be 113%; in experiment [13], 116%; in experiment [14] it was 109%; in [15], 99%; in [16], 103%; in experiment [17], 86%. Moreover, the Activity in experiment [18] is 98%; in experiment [19], 122%; in experiment [20], 76%; in experiment [21], 102%; in experiment [22], 96%; in [23], 99%. For the same molecule, the Activity in experiment [24] was 86%; in experiment [25], 92%; in experiment [26], 125%; in [27], 8%; in experiment [28], 87%; in experiment [29] it was 92%. The Activity in experiment [30] turned out to be 90%; in experiment [31], 121%; in experiment [32] it was 94%; in [33], 119%. Further, the IC50 in experiment [4] was more than 50000 nM; in experiment [5] it was “Not Active”; in experiment [7] it was 208 nM; in experiment [8], 750 nM; in [10], 1290 nM.

Take `CC1=CC(=O)N(Nc2nc(-c3cccs3)nc3scc(-c4cccc(OCCN5CCOCC5)c4)c23)C1=O`: the IC50 in experiment [34] is more than 50000 nM; in [7], 540 nM; in [8] it was 3260 nM; in experiment [10] it was 2380 nM.

`CC1=CC(=O)N(Nc2nc(-c3cccs3)nc3scc(-c4cccc(OCCN(C)C)c4)c23)C1=O`: the IC50 in [34] is more than 50000 nM; in experiment [4], more than 50000 nM; in experiment [8], 7540 nM; in experiment [10] it was 9880 nM.
